Like-named read-outs stand apart in the source and are kept apart here. Where only a bound is given, the exact number is not on record here.

The subject of data set [1] is Male ICR mice. Description: Tail suspension test. Format: in vivo. The following applies: for influence of flumazenil on antidepressant effect (immobility time): 2.0 mg/kg p.o. 45 minutes prior plus flumazenil 1.25 mg/kg i.p. 15 minutes prior; for oral dose that significantly shortens immobility time (antidepressant effect): 45 minutes prior to testing (imipramine 30 minutes), immobility scored from 2 to 6 min. The method, then:
Tail suspension test. Male ICR mice 4 to 6 weeks of age were randomized into groups (n=12-20/group). Vehicle (0.9% NaCl), or one of oral l-THP, dl-THP and d-THP (0.1-5.0 mg/kg) was administered 45 minutes prior to testing; or 30 mg/kg oral imipramine was administered 30 minutes prior to testing. In the test, a mouse was taped to a bar by the tail and suspended 15 cm above ground for 6 minutes. The total time of immobility was scored manually from 2 to 6 min during the period of suspension. Decreased time of immobility is indicative of antidepressant effect (Stem et al, 1985). To test whether the antidepressant effect elicited by l-THP or dl-THP can be blocked by the benzodiazepine (BZ) binding site antagonist flumazenil, naïve male 4-6 week old mice were randomly separated into three groups (n=12-20/group). The first group received vehicle (p.o.) 45 minutes prior to test and flumazenil (1.25 mg/kg i.p) 15 minutes prior to test, the second group received l-THP (2.0 mg/kg, p.o) or dl-THP (2.0 mg/kg, p.o.) 45 minutes prior to test and vehicle (i.p) 15 minutes prior to test, and the third group received l-THP (2.0 mg/kg p.o) or dl-THP (2.0 mg/kg p.o) 45 minutes prior to test and flumazenil (1.25 mg/kg i.p) 15 minutes prior to experiment.

Data set [2] has as its system mice. The following applies: oral administration; cited from earlier work.
For data set [3], the system named is Male ICR mice. Description: Elevated plus-maze test. It is filed as in vivo. The following applies: for time spent in the open arms (anxiolytic effect): 45 minutes prior, 5-minute test; for anxiolysis (time spent in open arms): p<0.001. How it is done: Elevated plus-maze test. Naive male ICR mice 4 to 6 weeks of age were randomly separated into groups (n=15-20/group). Vehicle (0.9% NaCl), 0.01, 0.05, 0.1, 0.5, 1, 2 and 2.5 mg/kg dl-THP or l-THP, or 1 or 3 mg/kg diazepam was orally administered 45 minutes prior to experiment. The test apparatus consisted of four arms, 25 cm×5 cm each, extended from a center platform of 5 cm×5 cm in the shape of a plus sign. Two of the opposite arms were enclosed by 20 cm opaque high walls, making up the closed arms. The plus maze was elevated 40 cm off the ground. Each mouse was placed onto the center of the maze with head facing an open arm. The frequency and time spent in the open and closed arms were recorded for a period of 5 minutes. An arm entry was recorded when all four paws were inside the arm. Increased number of open-arm entries and percentage of time spent in them are indicative of an anxiolytic effect on the mice (Kalueff and Tuohimaa, 2004; Treit et al., 1993). In addition, the number of closed-arm entries provided an index of locomotor activity (Boguszewski and Zagrodzka, 2002). […] The first group received vehicle (p.o.) 45 minutes prior to test and flumazenil (1.25 mg/kg i.p) 15 minutes prior to test, the second group received l-THP (1.0 mg/kg, p.o) 45 minutes prior to test and vehicle (i.p) 15 minutes prior to test, and the third group received l-THP (1.0 mg/kg p.o) 45 minutes prior to test and flumazenil (1.25 mg/kg i.p) 15 minutes prior to test.

Data set [4] concerns Male ICR mice. The data set is described as follows: Horizontal wire test (myorelaxant effect). It is filed as in vivo. How it is done:
Male ICR mice of 4 to 6 weeks were randomly separated into groups (n=15-20 per group). Vehicle (0.9% NaCl), 0.01-2.5 mg/kg dl-THP or l-THP, and 1 and 3 mg/kg diazepam were orally administered 45 minutes prior to test. Locomotor activity was measured based on crossings of infrared beams. […] Myorelaxant activity was measured using the horizontal wire test. In this test, mouse was lifted by the tail and allowed to grasp onto a horizontally strung wire (1 mm diameter, 20 cm long and placed 20 cm above the table) with their forepaws and released. For each mouse, the number of falls in 60 seconds was recorded.

In data set [5] the test system is Male ICR mice. Description: Locomotor activity side effect test (crossings of infrared beams). It is filed as in vivo. The conditions noted are these: 3 mg/kg, 45 minutes prior; p<0.05. The method, then:
Manic-like behavior was induced accomplished using the method of Pathak et al. (2015). Male ICR mice of 6 to 7 week were given daily injection of 1.8 mg/kg d-amphetamine (amphetamine-sensitized mice) or vehicle (0.9% NaCl vehicle treated, viz. mice unsensitized by amphetamine) for 5 days. Amphetamine was then withdrawn for 7 days. The locomotor activity test ‘ZIL-2’ apparatus (Beijing Institute of Materia Medica) employed consisted of a transparent plastic cylinder of 20 cm diameter×12 cm height equipped with six evenly spaced sets of infrared beam-photocell. The number of transitions made by the mouse across the beams as detected by the photocells was recorded automatically over a period of 5 minutes. The level of locomotor activity was scored by the number beam-crossings made by the mouse. In the test, amphetamine sensitized mice were randomly separated into groups (m=12-20 per group). The Amp group of mice received 0.9 mg/kg amphetamine injection 10 minutes prior to testing. […]
Male ICR mice of 4 to 6 weeks were randomly separated into groups (n=15-20 per group). […] Locomotor activity was measured based on crossings of infrared beams. […] Myorelaxant activity was measured using the horizontal wire test. […] For each mouse, the number of falls in 60 seconds was recorded.

The test system of data set [6] is rats. The conditions noted are these: PTSD rats, cited from earlier work.
The subject of data set [7] is rats. The following applies: PTSD rats, cited from earlier work. This is another data set of the same source.
The next data set relates to female ICR mice. Description: Crawley's sociability and preference for social novelty test (three-chamber box). The conditions noted are these: 45 minutes prior. It is filed as in vivo. How it is done: In Crawley's test, female ICR mice of 8 to 10 weeks were randomized into groups (n=12-20/group), and orally administered 45 minutes prior to testing with vehicle (0.9% NaCl), 0.1 mg/kg l-THP or 0.5 mg/kg l-THP. The test apparatus comprised a rectangular, three-chamber box. Each chamber was 19×45 cm, and the dividing walls between chambers were made of clear Plexiglas. The central chamber was connected to each side chamber with a removable wall. Two identical wire cylindrical containers with removable lids that were large enough to hold a single mouse each were placed vertically inside the apparatus, one in the middle of each side chamber. Each of these containers consisted of a cup made of metal wires to allow for air exchange between the interior and exterior of the cylinder but small enough to prevent direct physical interactions between an animal on the inside with one on the outside, and a removable lid. In the beginning of the test, the two cylindrical containers in the two side chambers were empty, and the subject mouse was placed at the center of the middle chamber for adaptation. After 5 minutes, one social-object mouse (stranger-1) was placed inside the cylinder in one of the side chambers. The placement of strange-1 was systematically changed between the two side chambers between trials. Then the walls separating the middle chamber from the two side chambers were removed to allow the subject mouse free access to all three chambers. In a first 10-minute session, the duration and number of direct contacts between the subject mouse and the container cup housing or not housing the stranger-1 mouse were recorded individually. At the end of this session, a second social-object mouse (stranger-2) was placed in the wire container cup that was empty during the first 10-minute session. Then the duration and number of direct contacts between the subject mouse and the two container cups holding stranger-1 mouse and stranger-2 mouse were recorded separately during a second 10-minute session. The first 10-minute session provided an estimate of the sociability of the subject mouse in terms of its preference if any to spend more time with the container holding the stranger-1 mouse compared to the empty container. The second 10-minute session provided an estimate of the preference of the subject mouse for social novelty in terms of its preference if any to associate with the container holding the novel stranger-2 mouse compared to the container holding the more familiar stranger-1 mouse (Moy et al 2004; Kaidanovich-Beilin et al., 2011).

The test system of data set [8] is amphetamine sensitized mice. The data set is described as follows: Test for antimanic-like behavior: locomotor activity of amphetamine sensitized mice. Format: in vivo. The following applies: 0.9 mg/kg amphetamine 10 minutes prior. How it is done:
Manic-like behavior was induced accomplished using the method of Pathak et al. (2015). Male ICR mice of 6 to 7 week were given daily injection of 1.8 mg/kg d-amphetamine (amphetamine-sensitized mice) or vehicle (0.9% NaCl vehicle treated, viz. mice unsensitized by amphetamine) for 5 days. Amphetamine was then withdrawn for 7 days. The locomotor activity test ‘ZIL-2’ apparatus (Beijing Institute of Materia Medica) employed consisted of a transparent plastic cylinder of 20 cm diameter×12 cm height equipped with six evenly spaced sets of infrared beam-photocell. The number of transitions made by the mouse across the beams as detected by the photocells was recorded automatically over a period of 5 minutes. The level of locomotor activity was scored by the number beam-crossings made by the mouse. In the test, amphetamine sensitized mice were randomly separated into groups (m=12-20 per group). The Amp group of mice received 0.9 mg/kg amphetamine injection 10 minutes prior to testing. The l-THP groups received oral l-THP (0.05, 0.1 and 0.2 mg/kg) 30 minutes prior to testing, and 0.9 mg/kg amphetamine injection 10 minutes prior to testing. The Veh mice received vehicle orally 30 minutes prior to testing and vehicle injection 10 minutes prior to testing.

Data set [9] concerns mice. The following applies: 6.25, 12.5, and 18.75 mg/kg i.g.; cited from earlier work.
Data set [10] has as its system rats. The following applies: 10, 20 and 40 mg/kg i.p., mediated by D2 receptors; cited from earlier work.
For data set [11], the system named is rats. The following applies: cited from earlier work.

`COc1cc2c(cc1OC)[C@@H]1Cc3ccc(OC)c(OC)c3CN1CC2` (racemic) [dl-THP, dl-tetrahydropalmatine]: in the data set on Male ICR mice [1], the “influence of flumazenil on antidepressant effect (immobility time)” value was “inhibition of the antidepressant effects”, the “lowest oral dose eliciting antidepressant effect based on immobility time” value was not below 2.0 mg/kg and the “oral dose that significantly shortens immobility time (antidepressant effect)” value was 2.0 to 5.0 mg/kg. The “anxiolytic effects: entries into open arms without significant change in entries into closed arms” value in the data set on mice [2] is recorded as “selective anxiolytic effects”. Also, the “time spent in the open arms (anxiolytic effect)” value (“time spent in the open arms” below) in the data set on Male ICR mice [3] (1.0 mg/kg oral) is on record as “significant increase in time spent in the open arms”. In the data set on Male ICR mice [3] (2.0 mg/kg oral), the “time spent in the open arms” value is reported as “significant increase in time spent in the open arms”. Moreover, the “lowest oral dose active for anxiolysis” value with Male ICR mice [3] is not below 1.0 mg/kg.

In the case of `CN1C(=O)CN=C(c2ccccc2)c2cc(Cl)ccc21` [Diazepam], the “myorelaxant effect (number of falls in 60 seconds)” value in the data set on Male ICR mice [4] (3 mg/kg) was “significant (p<0.05) myorelaxant effect”. Further, in the data set with Male ICR mice [5], the “locomotor activity (crossings of infrared beams)” value is recorded as “significant decrease”. Moreover, the “anxiolysis (time spent in open arms)” value with Male ICR mice [3] (diazepam 1 mg/kg) and with Male ICR mice [3] (diazepam 3 mg/kg) was “significant anxiolysis” each time.

As for `CN(C)CCCN1c2ccccc2CCc2ccccc21` [Imipramine], in the data set with Male ICR mice [1], the “oral dose that significantly shortens immobility time (antidepressant effect)” value stood at 30 mg/kg.

In the case of `COc1cc2c(cc1OC)[C@@H]1Cc3ccc(OC)c(OC)c3CN1CC2` [l-THP, levorotatory tetrahydropalmatine], the “anxiolytic effect based on the elevated plus-maze test” value is reported as “significant anxiolytic effect” with rats [6] (daily 50 mg/kg i.p.) and “not” in the data set on rats [6] (daily 10 or 20 mg/kg i.p.). Also, the “myorelaxant effect (number of falls in 60 seconds)” value in the data set with Male ICR mice [4] (male, ICR, mouse, in vivo, 45 min) is reported as “significant (p<0.01) myorelaxant effect”; with Male ICR mice [4] (mouse, in vivo), “did not induce any significant myorelaxant effect”. Also, in the data set with Male ICR mice [1], the “influence of flumazenil on antidepressant effect (immobility time)” value is given as “inhibition of the antidepressant effects”. In the data set with Male ICR mice [1], the “lowest oral dose eliciting antidepressant effect based on immobility time” value is not below 0.5 mg/kg. Further, the “oral dose that significantly shortens immobility time (antidepressant effect)” value in the data set on Male ICR mice [1] is 0.5 to 5.0 mg/kg. The “antidepressant effect based on sucrose intake or immobility time in the forced swimming test” value was “significant antidepressant effect” in the data set with rats [7] (daily 50 mg/kg i.p.) and “not” in the data set with rats [7] (daily 10 or 20 mg/kg i.p.). For the same compound, the “preference for social novelty: stranger-2 vs familiar stranger-1 mouse” value with female ICR mice (0.1 mg/kg oral, p<0.001) was “showed preference for the novel stranger-2 mouse”; with female ICR mice (0.5 mg/kg oral, p<0.01), “showed preference for the novel stranger-2 mouse”. The “sociability: time with stranger-1 mouse container vs empty container” value with female ICR mice (0.1 mg/kg oral, p<0.001) is “significant enhancement of sociability”; in the data set on female ICR mice (0.5 mg/kg oral, p<0.01) it was “significant enhancement of sociability”. Further, the “level of locomotor activity relative to Amp mice (antimanic effect)” value in data set [8] (0.05 mg/kg oral 30 minutes prior), in [8] (0.1 mg/kg oral 30 minutes prior) and in data set [8] (0.2 mg/kg oral 30 minutes prior) was “significantly reduced the level locomotor activity” each time. The “time spent in the open arms” value in the data set on Male ICR mice [3] (0.1 mg/kg oral), in the data set with Male ICR mice [3] (0.5 mg/kg oral) and in the data set with Male ICR mice [3] (2.5 mg/kg oral) was “significant increase in time spent in the open arms” each time. Further, in the data set with Male ICR mice [3] (1.0 mg/kg p.o. 45 minutes prior plus flumazenil 1.25 mg/kg i.p. 15 minutes prior), the “influence of flumazenil on anxiolytic effect (time spent in open arms)” value is recorded as “inhibition of the anxiolytic effect”. In addition, the “lowest oral dose active for anxiolysis” value with Male ICR mice [3] is given as not below 0.1 mg/kg. Besides, the locomotor activity result in the data set with mice [9] was “did not affect locomotor activity”. Further, in the data set with rats [10], the antinociceptive effects result was “dose-dependent antinociceptive effects”. In addition, the locomotion result is recorded as “failed to do so” in the data set with rats [11] (3 mg/kg i.p.) and “inhibited locomotion” in the data set with rats [11] (10 mg/kg i.p.).

The values are drawn from patent US20200022970A1, “APPLICATION OF LEVOROTATORY TETRAHYDROPALMATINE TO THE TREATMENT OF DEPRESSION DISORDERS, BIPOLAR AND RELATED DISORDERS, MANIC EPISODES AND ANXIETY DISORDERS” (priority 2018, published 2020).
